Test results: article PMC4280171, “Novel PDE4 Inhibitors Derived from Chinese Medicine Forsythia” (PLoS ONE, 2014)
Where two headings read alike, the source gives them in different places.

Legend:
[1] = tested on: LPS stimulated RAW264.7 and PBMC cells; experiment: TNF secretion in LPS stimulated cells, RAW264.7 and PBMC; assay type: cell-based, mouse; human; conditions: Mus musculus
Experimental: Compound 6, 7, 9 and 13 were also tested in LPS stimulated RAW264.7 (Fig. 4A) and PBMC (Fig. 4B) cells to evaluate their ability to suppress TNF secretion. […] PDE4. […] TNF ranging from 25–75 nM (Fig. 4C).
(§1) Figure 4 Tested compounds reduce TNF secretion in LPS stimulated mouse RAW264.7 and human PBMCs. A. 5×10^5 RAW264.7 cells were seeded in 96 wells for 18 h. Cells were primed with compounds at different concentration for 3 h before treated with LPS (1 ng/ml) for additional 8 h. TNF cytokine releases were monitored by ELISA. B. PBMC (0.2 ml at 1×10^5/ml) were primed with compounds at different concentration for 3 h before treated with LPS (1 ng/ml) for additional 8 h. TNF cytokine releases were monitored by ELISA. % of TNF secretion were calculated and graphed. C. Summary of compound IC50. The data represent n = 3–6 experiments. TEXT PRINTED IN THE PICTURE: (C) C6: RAW 264.7: 400nM; PBMC: 90nM | (C) C7: RAW 264.7: 8uM; PBMC: 10uM | (C) C9: RAW 264.7: 100nM; PBMC: 80nM | (C) C13: RAW 264.7: 70nM; PBMC: 25nM
(§2) 5×10^5 RAW264.7 cells were seeded in 96 wells for 18 h. Cells were primed with compounds at different concentration for 3 h before treated with LPS (1 ng/ml) for additional 8 h. TNF cytokine releases were monitored by ELISA. PBMC (0.2 ml at 1×10^5/ml) were primed with compounds at different concentration for 3 h before treated with LPS (1 ng/ml) for additional 8 h. TNF cytokine releases were monitored by ELISA. % of TNF secretion were calculated and graphed.

[2] = tested on: LPS stimulated RAW264.7 cells; experiment: TNF secretion in LPS stimulated RAW264.7 cells (ELISA); assay type: cell-based; conditions: Mus musculus, primed with compound 3 h, LPS 1 ng/ml 8 h, read-out: IC50 TNF secretion, RAW 264.7
Experimental: as §1, §2

[3] = tested on: C57/BL6 mice given LPS (E. coli, 100 µg i.p.); experiment: LPS septic shock model; assay type: in vivo, mouse; conditions: for ID50 IL-6 / inhibitory dose [ID50] TNF: i.p. 10 min before LPS 100 ug i.p., blood 2 h later
Experimental: Mice were euthanized 2 h later using pentobarbital where blood was collected and assayed for IL6 and TNF cytokine levels. […] In a separate experiment, a brief pharmacokinetic study was performed where PDE4 inhibitors (1 mg/kg, i.p.) were given to mice 18 h before LPS administration (E. coli, 100 ug i.p.).
Figure 6 PDE4 inhibitors lessen cytokine storm induced by LPS septic shock. C57/BL6 mice were administered i.p. nothing (CON), vehicle, 10 ug/kg, 100 ug/kg, 1 mg/kg or 10 mg/kg of compounds 6, 7 or 9. Mice were given LPS (E. coli, 100 µg) 10 min later through an i.p. injection. 2 h later mice were euthanized using pentobarbital and blood was collected for IL-6 and TNF measurements. Shown in panel A–B is the % inhibition of cytokine levels as a function of drug dose. The data represent n = 3 mice/group at each dose. C57/BL6 mice were also pretreated with compound 5, 6, 7 or 9 at 1 mg/kg. Mice were given LPS (E. coli, 100 µg) 18 h later through an i.p. injection. 2 h later the mice were euthanized using pentobarbital and blood was collected for IL-6 and TNF measurements (C–D).
Compounds were diluted in PBS and various amounts (0.01, 0.1, 1 and 10 mg/kg) of compounds were administered to mice though an i.p. injection. 10 min later, mice were given 100 µg of LPS (E. coli) through an i.p. injection. 2 h later, mice were euthanized. Plasma was collected and processed for cytokine assays.

[4] = tested on: murine models of inflammation; conditions: parenteral and oral application; for severity of tissue injury: in each of the models
[5] = tested on: LPS stimulated PBMC; experiment: TNF secretion in LPS stimulated PBMC (ELISA); assay type: cell-based; conditions: Homo sapiens, primed with compound 3 h, LPS 1 ng/ml 8 h
Experimental: as §1, §2

[6] = molecular target: T1, PDE10 (Homo sapiens, UniProt Q9Y233); experiment: PDE-Glo phosphodiesterase activity assay, PDE10; assay type: biochemical; conditions: 25 mU purified enzyme per reaction
T1 construct: purchased Millipore
T1 sequence (Q9Y233 whole entry): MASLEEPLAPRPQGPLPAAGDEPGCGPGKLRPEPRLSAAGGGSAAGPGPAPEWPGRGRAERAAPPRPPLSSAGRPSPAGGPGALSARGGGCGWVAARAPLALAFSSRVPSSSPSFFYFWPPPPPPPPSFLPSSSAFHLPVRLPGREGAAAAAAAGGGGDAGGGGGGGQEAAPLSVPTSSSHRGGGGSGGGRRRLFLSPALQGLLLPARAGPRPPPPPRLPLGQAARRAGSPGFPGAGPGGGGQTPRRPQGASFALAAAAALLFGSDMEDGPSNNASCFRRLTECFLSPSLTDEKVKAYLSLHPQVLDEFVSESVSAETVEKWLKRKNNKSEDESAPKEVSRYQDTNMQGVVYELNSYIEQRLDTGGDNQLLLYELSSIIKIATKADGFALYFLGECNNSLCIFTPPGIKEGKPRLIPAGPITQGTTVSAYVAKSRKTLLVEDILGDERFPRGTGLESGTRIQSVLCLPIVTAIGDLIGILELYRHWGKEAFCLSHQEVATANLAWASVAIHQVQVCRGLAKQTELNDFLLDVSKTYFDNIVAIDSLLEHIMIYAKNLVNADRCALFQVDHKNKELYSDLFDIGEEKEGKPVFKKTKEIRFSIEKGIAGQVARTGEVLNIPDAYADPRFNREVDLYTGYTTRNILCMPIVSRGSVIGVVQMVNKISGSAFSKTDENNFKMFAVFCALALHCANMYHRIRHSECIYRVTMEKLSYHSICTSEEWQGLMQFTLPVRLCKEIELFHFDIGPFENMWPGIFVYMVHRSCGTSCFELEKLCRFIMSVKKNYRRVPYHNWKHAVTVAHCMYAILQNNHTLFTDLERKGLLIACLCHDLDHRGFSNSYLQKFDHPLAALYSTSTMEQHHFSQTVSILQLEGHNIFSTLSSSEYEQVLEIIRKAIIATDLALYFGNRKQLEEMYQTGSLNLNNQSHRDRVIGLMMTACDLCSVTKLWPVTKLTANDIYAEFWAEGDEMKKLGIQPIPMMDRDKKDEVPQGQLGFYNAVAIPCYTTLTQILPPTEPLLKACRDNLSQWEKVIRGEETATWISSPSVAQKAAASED
Experimental: (§3) For the PDE activity assay, all test compounds were diluted in DMSO with final concentrations in each assay of 100, 10, 1, 0.1, 0.01, 0.001, 0.0001 µM. For the PDE4 activity assay, 10 mU of purified PDE4 (Millipore) was used per reaction. Compounds 6, 7, 9 and 13 (blue underline) were further tested in PDE3, 5, 7, 10 activity assays in which 25 mU of purified enzyme was used per reaction. Summary of compound IC50 in lower right corner. TEXT PRINTED IN THE PICTURE: Compound 6: PDE3: >100uM; PDE4: 90nM; PDE5: 80uM; PDE7: >100uM; PDE10: >100uM | Compound 7: PDE3: >100uM; PDE4: 8uM; PDE5: >100uM; PDE7: >100uM; PDE10: >100uM | Compound 9: PDE3: >100uM; PDE4: 60nM; PDE5: >100uM; PDE7: >100uM; PDE10: >100uM | Compound 13: PDE3: >100uM; PDE4: 10nM; PDE5: 90uM; PDE7: >100uM; PDE10: >100uM
(§4) A PDE activity assay was carried out using the PDE-Glo Phosphodiesterase Assay per manufacturer’s instruction (Promega). Briefly, 5 ul of 1X PDE-Glo Reaction buffer containing 10 mU of purified human recombinant PDE4A4 (Millipore) was added to 96 well plate. All test compounds were dissolved in DMSO and a serial dilution (110) of the inhibitors were performed using 1X PDE-Glo Reaction buffer. 7.5 ul of test compounds were added to the PDE enzyme with the final concentrations in each assay of 100, 10, 1, 0.1, 0.01, 0.001, 0.0001 µM, and incubated at room temperature for 10 min. To initiate the PDE reaction, 12.5 ul of 2 µM cAMP was added to each reaction, mixed well and incubate at room temperature for 10 min. The reactions were terminated using 12.5 ul of PDE-Glo Termination Buffer. 12.5 ul of PDE-Glo Detection Solution containing PDE-Glo Detection Buffer and Protein Kinase A was added to each reaction. The reactions were carried at room temperature for 20 min. 50 ul of Kinase-Glo Reagent was then added to each reaction, mixed well, and incubate for 10 minutes at room temperature. The chemical luminescence signals were measured, quantified and graphed. Compounds 6, 7, 9 and 13 were further tested similarly using 25 mU purified PDE3, 5, 7, 10 (Millipore) enzyme.

[7] = molecular target: T2, PDE5 (Homo sapiens, UniProt O76074); experiment: PDE-Glo phosphodiesterase activity assay, PDE5; assay type: biochemical; conditions: 25 mU purified enzyme per reaction
T2 construct: purchased Millipore
Experimental: as §3, §4

[8] = molecular target: PDE7; experiment: PDE-Glo phosphodiesterase activity assay, PDE7; assay type: biochemical; conditions: 25 mU purified enzyme per reaction
Experimental: as §3, §4

[9] = tested on: C57/BL6 mice challenged with H1N1 (A/PR/8/34); experiment: H1N1 pneumonia model; assay type: in vivo, mouse; conditions: 30 µg/ml in drinking water, estimated dose 5 mg/kg/d; for survival of mice infected with H1N1: versus diluent
[10] = molecular target: PDE4; experiment: PDE-Glo phosphodiesterase activity assay, PDE4; assay type: biochemical, human; conditions: for IC50: 10 mU purified PDE4 per reaction, PDE-Glo assay
Experimental: Compounds 1–14 (Fig. 2) were tested in vitro using PDE-glo phosphodiesterase assay (Promega, Madison, WI). Briefly, all the compounds were diluted in DMSO, and the final concentrations in each assay were 100, 10, 1, 0.1, 0.01, 0.001, 0.0001 µM. For the PDE4 activity assay, 10 mU of purified PDE4D (Millipore) was used per reaction. […] PDE4 = 8 µM.
as §3, §4

[11] = molecular target: PDE3; experiment: PDE-Glo phosphodiesterase activity assay, PDE3; assay type: biochemical; conditions: 25 mU purified enzyme per reaction
Experimental: as §3, §4

[12] = tested on: PDE4; set-up: method as in PMID 15476679; conditions: selective inhibitors of PDE4 isolated from traditional Chinese medicines; cited from earlier work
[13] = RAW264.7, range over both cell types (and over the compounds named)

Row | SMILES | IC50 ([1]; RAW264.7, range over both cell types) [µM] | IC50 [2] [µM] | ID50 IL-6 [3] | inhibitory dose [ID50] TNF [3] | severity of tissue injury [4] | overt signs of distress in treated animals [4] | IC50 [5] [µM] | IC50 [6] [µM] | IC50 [7] [µM] | IC50 [8] [µM] | lavage cell counts, protein concentrations, and lavage cytokine IL-6 and TNF [9] | serum cytokines from H1N1-induced systematic inflammation [9] | signs of tissue injury (H&E, lung) [9] | survival of mice infected with H1N1 [9] | IC50 [10] [µM] | times weaker in activity toward PDE4 compared with compound 6 ([10]; in vitro) [times] | IC50 [11] [µM] | IC50 [1, 13] [µM] | serum TNF and IL-6 after 18 h lead time ([3]; 1 mg/kg i.p. 18 h before LPS 100 ug i.p.) | IC50 [12] [µM]
1 | COc1ccc([C@@H]2OC[C@H]3[C@@H]2CO[C@@H]3c2ccc(O[C@@H]3O[C@H](CO)[C@@H](O)[C@H](O)[C@H]3O)c(OC)c2)cc1OC [Compound 7, Forsythin] | 8 to 10 | 8 | 0.1∼1 mg/kg | 0.01∼1 mg/kg | lessen severity of tissue injury | none of the animals treated with the agents exhibited overt signs of distress | 10 | > 100 | > 100 | > 100 | decreased | significantly reduced | able to lessen signs of tissue injury | significantly improved the survival | 8 | > 80 | > 100 |  |  | 
2 | COc1ccc(N2C(=O)C3N=NN(CC(=O)Nc4cc(C)cc(C)c4)C3C2=O)cc1OC (stereo not drawn) [Compound 13] |  | 0.07 |  |  | lessen severity of tissue injury | none of the animals treated with the agents exhibited overt signs of distress | 0.025 | > 100 | 90 | > 100 | decreased | significantly reduced | able to lessen signs of tissue injury | significantly improved the survival | 0.01 |  | > 100 | 0.025 to 0.4 |  | 
3 | COc1cccc(CN2N=NC3C(=O)N(c4ccc(OC)c(OC)c4)C(=O)C32)c1 (stereo not drawn) [Compound 9] |  | 0.1 | 0.1∼1 mg/kg | 0.01∼1 mg/kg | lessen severity of tissue injury | none of the animals treated with the agents exhibited overt signs of distress | 0.08 | > 100 | > 100 | > 100 | decreased | significantly reduced | able to lessen signs of tissue injury | significantly improved the survival | 0.06 |  | > 100 | 0.025 to 0.4 | excellent efficacy reducing both serum TNF and IL-6 cytokines | 
4 | COc1cc(O)c2c(=O)c(-c3ccc(O)cc3)coc2c1 [prunetin] |  |  |  |  |  |  |  |  |  |  |  |  |  |  |  |  |  |  |  | 10 to 100
5 | COc1ccc([C@@H]2CC(=O)c3c(O)cc(O)cc3O2)cc1O [Hesperetin] |  |  |  |  |  |  |  |  |  |  |  |  |  |  |  |  |  |  |  | 10 to 100
6 | COc1ccc(C2OCC3(O)C(c4ccc(OC)c(OC)c4)OCC23)cc1OC (stereo not drawn) [Compound 6] |  | 0.4 | 0.1∼1 mg/kg | 0.01∼1 mg/kg | lessen severity of tissue injury | none of the animals treated with the agents exhibited overt signs of distress | 0.09 | > 100 | 80 | > 100 | decreased | significantly reduced | able to lessen signs of tissue injury | significantly improved the survival | 0.09 |  | > 100 | 0.025 to 0.4 |  | 
